Assay [1] has as its target T1, BIR3 domain of human XIAP (Homo sapiens, UniProt P98170).
T1 construct: BIR3 domain of human XIAP (residues 252-350) fused to a His-tag; His-tag (cleaved yes); made in house; host or cells: Escherichia coli
Briefly: XIAP in vitro competitive displacement binding assay (fluorescence polarization). The note with it: 1 h, PI at 0.04 μM; read-out: Xiap IC50 or PI μM (PI).

Assay [2] concerns EVSA-T (human breast carcinoma). Nature of the assay: Anti-proliferative activity, Alamar Blue assay, EVSA-T. The assay is classed as cell-based. (Alamar Blue is a resazurin reagent that responds to reducing activity.)
[3] abbreviates: Homo sapiens, EVSA-T, 72 h, EVSA-T cells, 72 hours, Alamar Blue, read-out: EVSA-T prolif.
[4] abbreviates: Homo sapiens, EVSA-T, read-out: EC50 in EVSA-T cell line assays.

Structures can show the parent of a compound that is named as a salt. Where two headings read alike, the source gives them in different places.

T1 sequence (P98170 252-350): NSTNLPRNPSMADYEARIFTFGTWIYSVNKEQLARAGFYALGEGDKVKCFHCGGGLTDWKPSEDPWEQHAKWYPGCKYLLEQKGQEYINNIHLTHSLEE

In the case of `C[C@@H]1CN(CC(=O)N2CC(C)(C)c3ccc(Cc4ccc(F)cc4)cc32)[C@@H](CN2[C@H](C)COC[C@H]2C)CN1` [Example 49, 2-[(2R,5R)-2-{[(3R,5R)-3,5-Dimethylmorpholin-4-yl]methyl}-5-methylpiperazin-1-yl]-1-{6-[(4-fluorophenyl)methyl]-3,3-dimethyl-2,3-dihydro-1H-indol-1-yl]ethan-1-one, dihydrochloride], the inhibition at 0.04 µM in assay [1] is 44%. The results for the EC50 in assay [2] (setting [3]) and in assay [2] (setting [4]) were 1.1 nM and under 1000 nM, respectively.

With `C[C@@H]1CN(CC(=O)N2CC(C)(C)c3ncc(Cc4ccc(F)cc4)cc32)[C@@H](CN2CCOC[C@]2(C)CO)CN1` [Example 50, 1-{6-[(4-Fluorophenyl)methyl]-3,3-dimethyl-1H,2H,3H-pyrrolo[3,2-b]pyridin-1-yl}-2-[(2R,5R)-2-{[(3S)-3-(hydroxymethyl)-3-methylmorpholin-4-yl]methyl}-5-methylpiperazin-1-yl]ethan-1-one, dihydrochloride], the inhibition at 0.04 µM in assay [1] was 44%. Also, the EC50 in assay [2] (setting [3]) was 1.3 nM; in assay [2] (setting [4]) it was under 1000 nM.

`C[C@@H]1CN(CC(=O)N2CC(C)(C)c3ncc(Cc4ccc(F)cc4)cc32)[C@@H](CN2C[C@H](C)NC(=O)[C@H]2C)CN1` [Example 48, (3R,6S)-4-{[(2R,5R)-1-(2-(6-[(4-Fluorophenyl)methyl]-3,3-dimethyl-1H,2H,3H-pyrrolo[3,2-b]pyridin-1-yl}-2-oxoethyl)-5-methylpiperazin-2-yl]methyl}-3,6-dimethylpiperazin-2-one, dihydrochloride]: in assay [1], the inhibition at 0.04 µM came to 49%. The EC50 was 4.3 nM in assay [2] (setting [3]) and under 1000 nM in assay [2] (setting [4]).

On to `C[C@@H]1CN(CC(=O)N2CC(C)(C)c3ncc(C(O)c4c(F)cccc4F)cc32)[C@@H](CN2[C@H](C)COC[C@H]2C)CN1` (single isomer, unassigned) [Example 117, 1-{(R or S)-6-[(2,6-Difluorophenyl)(hydroxy)meth-yl]-3,3-dimethyl-1H,2H,3H-pyrrolo[3,2-]pyridin-1-yl}-2-[(2R,5R)-2-{[(3R,5R)-3,5-dimethylmorpholin-4-yl]methyl}-5-methylpiperazin-1-yl]ethan-1-one dihydrochloride], for which the inhibition at 0.04 µM in assay [1] came out at 41%.

`C[C@@H]1CN(CC(=O)N2CC(C)(C)c3ncc(Cc4ccc(F)cc4)cc32)[C@@H](CN2CCC[C@H]2C(F)(F)F)CN1` [Example 36, 1-{6-[(4-Fluorophenyl)methyl]-3,3-dimethyl-1H,2H,3H-pyrrolo[3,2-b]pyridin-1-yl}-2-[(2R,5R)-5-methyl-2-{[(2S)-2-(trifluoromethyl)pyrrolidin-1-yl]methyl}piperazin-1-yl]ethan-1-one]: the EC50 in assay [2] (setting [3]) is 12 nM; in assay [2] (setting [4]), under 1000 nM.

Regarding `C[C@@H]1CN(CC(=O)N2CC(C)(C)c3ncc(Cc4ccc(F)cc4)cc32)[C@@H](CN2CCC(F)(F)CC2)CN1` [Example 4, 2-[(2R,5R)-2-[(4,4-Difluoropiperidin-1-yl)methyl]-5-methylpiperazin-1-yl]-1-{6-[(4-fluorophenyl)methyl]-3,3-dimethyl-1H,2H,3H-pyrrolo[3,2-b]pyridin-1-yl}ethan-1-one dihydrochloride], the EC50 was 6.8 nM in assay [2] (setting [3]) and under 1000 nM in assay [2] (setting [4]).

On to `C[C@@H]1CN(CC(=O)N2CC(C)(C)c3ncc(Cc4ccc(F)cc4)cc32)[C@@H](CN2C3CCC2COC3)CN1` [Example 17, 1-{6-[(4-Fluorophenyl)methyl]-3,3-dimethyl-1H,2H,3H-pyrrolo[3,2-b]pyridin-1-yl}-2-[(2R,5R)-5-methyl-2-{3-oxa-8-azabicyclo[3.2.1]octan-8-ylmethyl}piperazin-1-yl]ethan-1-one dihydrochloride], for which the EC50 was 3.8 nM in assay [2] (setting [3]) and under 1000 nM in assay [2] (setting [4]).

As for `C[C@@H]1CN(CC(=O)N2CC(C)(C)c3ncc(C(O)c4ccccc4)cc32)[C@@H](CN2[C@H](C)COC[C@H]2C)CN1` (single isomer, unassigned) [Example 113, 2-[(2R,5R)-2-{[(3R,5R)-3,5-Dimethylmorpholin-4-yl]methyl}-5-methylpiperazin-1-yl]-1-{(R or S)-6-[hydroxy(phenyl)methyl]-3,3-dimethyl-1H,2H,3H-pyrrolo[3,2-]pyridin-1-yl}ethan-1-one dihydrochloride], the figures for the EC50 in assay [2] (setting [3]) and in assay [2] (setting [4]) were 9.4 nM and under 1000 nM, respectively.

As to `C[C@@H]1CN(CC(=O)N2CC(C)(C)c3ncc(Cc4ccc(F)cc4)cc32)[C@@H](CN2Cc3cccnc3C2)CN1` [Example 21, 1-{6-[(4-Fluorophenyl)methyl]-3,3-dimethyl-1H,2H,3H-pyrrolo[3,2-b]pyridin-1-yl}-2-[(2R,5R)-5-methyl-2-{5H,6H,7H-pyrrolo[3,4-b]pyridin-6-ylmethyl}piperazin-1-yl]ethan-1-one dihydrochloride], the EC50 in assay [2] (setting [3]) was 3.7 nM; in assay [2] (setting [4]), under 1000 nM.

In the case of `C[C@@H]1CN(CC(=O)N2CC(C)(C)c3ncc(C(O)c4ccc(F)cc4F)cc32)[C@@H](CN2[C@H](C)COC[C@H]2C)CN1` (single isomer, unassigned) [Example 104, (R or S)-1-{6-[(2,4-Difluorophenyl)(hydroxy)meth-yl]-3,3-dimethyl-1H,2H,3H-pyrrolo[3,2-b]pyridin-1-yl}-2-[(2R,5R)-2-{[(3R,5R)-3,5-dimethylmorpholin-4-yl]methyl}-5-methylpiperazin-1-yl]ethan-1-one dihydrochloride], the EC50 in assay [2] (EVSA-T cells, 72 hours, Alamar Blue, dihydrochloride, read-out: EVSA-T prolif) was determined as 1.3 nM.

Take `CC1CC(=O)CCN1C[C@H]1CN[C@H](C)CN1CC(=O)N1CC(C)(C)c2ncc(Cc3ccc(F)cc3)cc21` (stereo partly drawn) [Example 8, 1-{[(2R,5R)-1-(2-{6-[(4-Fluorophenyl)methyl]-3,3-dimethyl-1H,2H,3H-pyrrolo[3,2-b]pyridin-1-yl}-2-oxoethyl)-5-methylpiperazin-2-yl]methyl}-2-methylpiperidin-4-one dihydrochloride]: the results for the EC50 in assay [2] (setting [3]) and in assay [2] (setting [4]) were 3 nM and under 1000 nM, respectively.

For `CO[C@@H]1CN(C[C@H]2CN[C@H](C)CN2CC(=O)N2CC(C)(C)c3ncc(Cc4ccc(F)cc4)cc32)C[C@@H]1F` (mixture of isomers) [Example 41], the results for the EC50 in assay [2] (setting [3]) and in assay [2] (setting [4]) were 6 nM and under 1000 nM, respectively.

In the case of `C[C@@H]1CN(CC(=O)N2CC(C)(C)c3ncc(Cc4ccc(F)cc4)cc32)[C@@H](CN2C[C@H](CO)OC[C@H]2C)CN1` [Example 119, 1-{6-[(4-Fluorophenyl)methyl]-3,3-dimethyl-1H,2H,3H-pyrrolo[3,2-b]pyridin-1-yl}-2-[(2R,5R)-2-{[(2R,5R)-2-(hydroxymethyl)-5-methylmorpholin-4-yl]methyl}-5-methylpiperazin-1-yl]ethan-1-one, dihydrochloride], the EC50 in assay [2] (setting [3]) was 0.32 nM; in assay [2] (setting [4]) it was under 1000 nM.

Regarding `COCC1(C)COCCN1C[C@H]1CN[C@H](C)CN1CC(=O)N1CC(C)(C)c2ncc(Cc3ccc(F)cc3)cc21` (single isomer, unassigned) [Example 99, dihydrochloride], in assay [2] (setting [3]), the EC50 amounted to 1.5 nM.

On to `C[C@@H]1CN(CC(=O)N2CC(C)(C)c3ncc(Cc4ccc(F)cc4F)cc32)[C@@H](CN2C[C@H](CO)OC[C@H]2C)CN1` [Example 120, 1-{6-[(2,4-Difluorophenyl)methyl]-3,3-dimethyl-1H,2H,3H-pyrrolo[3,2-b]pyridin-1-yl}-2-[(2R,5R)-2-{[(2R,5R)-2-(hydroxymethyl)-5-methylmorpholin-4-yl]methyl}-5-methylpiperazin-1-yl]ethan-1-one, dihydrochloride], for which the EC50 in assay [2] (setting [3]) is 0.3 nM; in assay [2] (setting [4]), under 1000 nM.

For the compound `C[C@@H]1CN(CC(=O)N2CC(C)(C)c3ncc(Cc4ccc(F)cc4)cc32)[C@@H](CN2CCC[C@@H](F)C2)CN1` [Example 14, 1-{6-[(4-Fluorophenyl)methyl]-3,3-dimethyl-1H,2H,3H-pyrrolo[3,2-b]pyridin-1-yl}-2-[(2R,5R)-2-{[(3R)-3-fluoropiperidin-1-yl]methyl}-5-methylpiperazin-1-yl]ethan-1-one dihydrochloride], the EC50 in assay [2] (setting [3]) is 4.6 nM; in assay [2] (setting [4]) it was under 1000 nM.

`C[C@@H]1CN(CC(=O)N2CC(C)(C)c3ncc(Cc4ccc(F)cc4)cc32)[C@@H](CN2CCC(F)(F)C2)CN1` [Example 6, 2-[(2R,5R)-2-[(3,3-Difluoropyrrolidin-1-yl)methyl]-5-methylpiperazin-1-yl]-1-{6-[(4-fluorophenyl)methyl]-3,3-dimethyl-1H,2H,3H-pyrrolo[3,2-b]pyridin-1-yl}ethan-1-one dihydrochloride]: the EC50 in assay [2] (setting [3]) was 4.6 nM; in assay [2] (setting [4]) it was under 1000 nM.

Regarding `CC(C)[C@@H]1COCCN1C[C@H]1CN[C@H](C)CN1CC(=O)N1CC(C)(C)c2ncc(Cc3ccc(F)cc3)cc21` [Example 13, 1-{6-[(4-Fluorophenyl)methyl]-3,3-dimethyl-1H,2H,3H-pyrrolo[3,2-b]pyridin-1-yl)-2-[(2R,5R)-5-methyl-2-{[(3R)-3-(propan-2-yl)morpholin-4-yl]methyl}piperazin-1-yl]ethan-1-one dihydrochloride], the EC50 is 1.2 nM in assay [2] (setting [3]) and under 1000 nM in assay [2] (setting [4]).

Turning to `CC1CC(=O)CCN1C[C@H]1CN[C@H](C)CN1CC(=O)N1CC(C)(C)c2ncc(Cc3ccc(F)cc3)cc21` (single isomer, unassigned) [Example 39, (2R or 2S)-1-{[(2R,5R)-1-(2-{6-[(4-Fluorophenyl)methyl]-3,3-dimethyl-1H,2H,3H-pyrrolo[3,2-b]pyridin-1-yl}-2-oxoethyl)-5-methylpiperazin-2-yl]methyl}-2-methylpiperidin-4-one dihydrochloride], the EC50 in assay [2] (setting [3]) was 5.4 nM; in assay [2] (setting [4]), under 1000 nM.

Regarding `C[C@@H]1CN(CC(=O)N2CC(C)(C)c3ncc(Cc4ccc(F)cc4)cc32)[C@@H](CN2CCOCC(F)(F)C2)CN1` [Example 28, 2-[(2R,5R)-2-[(6,6-Difluoro-1,4-oxazepan-4-yl)methyl]-5-methylpiperazin-1-yl]-1-{6-[(4-fluorophenyl)methyl]-3,3-dimethyl-1H,2H,3H-pyrrolo[3,2-b]pyridin-1-yl}ethan-1-one dihydrochloride], the EC50 in assay [2] (setting [3]) was 3.1 nM; in assay [2] (setting [4]), under 1000 nM.

These data come from US9980973B2, “Bicyclic heterocycle compounds and their uses in therapy” (ASTEX THERAPEUTICS LIMITED, priority 2012, dated 2018).
